What is called AUC is the area under the concentration-time curve, a measure of exposure. The Cmax is the highest concentration seen after dosing. For orientation: Tmax means the time from dosing to the highest level.

Structures are written as SMILES.

A short description of series [1]: Human plasma levels of Compounds Q through T after oral dosing with the Compound of Formula Q. The series is classed as in vivo. To be noted: day 8 after 7 day dosing (120 mg, 4 doses/day) with the Compound of Formula Q. On the procedure:
(§1) In addition, the in-vivo metabolism of the Compound of Formula Q is studied after oral administration to rats, dogs and humans. Plasma levels after administration are determined in all three species for the Compounds of Formula Q through T. The results of the studies indicate that metabolism of the Compound of Formula Q is rapid, and that the N-demethyl compounds are highly polar and excreted rapidly. Results of human plasma studies on day 8 after 7 day dosing (120 mg, 4 doses/day) with the Compound of Formula Q are shown below: […]

Another series addresses T1, CYP 3A4 (Homo sapiens, UniProt P08684).
T1 construct: from tissue
Put plainly: In-vitro metabolism using subcellular fractions and isolated hepatocytes: N-demethylation. The series is classed as in vitro ADME. From the text:
(§2) The in-vitro metabolism of the Compound of the Formula Q and its metabolites is studied using subcellular fractions and isolated hepatocytes. […] These two reductions are both catalyzed in the reverse direction (oxidation) by CYP 3A4.

A further series concerns ketone reductase. The series can be described thus: In-vitro metabolism using subcellular fractions and isolated hepatocytes: ketone reduction. The class given is in vitro ADME. To be noted: forms Compounds of Formula S and T, respectively.
Description: as §2

A short description of series [2]: In-vivo metabolism after oral administration. The following applies: oral administration to rats, dogs and humans. On the procedure: as §1

T1 sequence (P08684 whole entry, species assumed): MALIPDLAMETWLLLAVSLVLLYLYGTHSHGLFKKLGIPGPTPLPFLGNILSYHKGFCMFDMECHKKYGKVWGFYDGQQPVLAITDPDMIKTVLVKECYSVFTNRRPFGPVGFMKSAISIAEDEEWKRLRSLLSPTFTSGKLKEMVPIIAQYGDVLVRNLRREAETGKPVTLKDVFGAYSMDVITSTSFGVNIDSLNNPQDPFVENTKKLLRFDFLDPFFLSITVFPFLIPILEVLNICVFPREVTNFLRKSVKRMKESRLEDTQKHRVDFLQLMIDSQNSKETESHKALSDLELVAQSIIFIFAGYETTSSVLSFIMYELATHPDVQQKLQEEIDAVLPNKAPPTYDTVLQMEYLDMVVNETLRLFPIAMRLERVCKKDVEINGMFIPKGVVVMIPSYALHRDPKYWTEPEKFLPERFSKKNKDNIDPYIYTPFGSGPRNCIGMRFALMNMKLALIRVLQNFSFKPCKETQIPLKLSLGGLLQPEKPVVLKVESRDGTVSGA

Take `O=C(CCCN1CC[C@H]2[C@@H](C1)c1cccc3c1N2CCN3)c1ccc(F)cc1` [Compound R]: in series [1], the exposure (AUC) is 170 ng·h/mL, the Cmax was 37 ng/mL and the Tmax was determined as 2.5 h.
On the same counts, the results for `OC(CCCN1CC[C@H]2[C@@H](C1)c1cccc3c1N2CCN3)c1ccc(F)cc1` (stereo partly drawn) [Compound T] are 517 ng·h/mL, 38 ng/mL and 6 h.
In the case of `CN1CCN2c3c(cccc31)[C@@H]1CN(CCCC(O)c3ccc(F)cc3)CC[C@@H]12` (stereo partly drawn) [Compound S], in series [1], the AUC turned out to be 906 ng·h/mL, the concentration peaked (Cmax) at 79 ng/mL and the Tmax is 3.5 h.
For `CN1CCN2c3c(cccc31)[C@@H]1CN(CCCC(=O)c3ccc(F)cc3)CC[C@@H]12` [Compound Q, 4-((6bR,10aS)-3-methyl-2,3,6b,9,10,10a-hexahydro-1H-pyrido[3′,4′:4,5]pyrrolo[1,2,3-de]quinoxalin-8(7H)-yl)-1-(4-fluorophenyl)-1-butanone], in series [1], the AUC came out at 347 ng·h/mL, the peak level (Cmax) was 78 ng/mL and the Tmax amounted to 2.5 h. Further, the “metabolic route: N-demethylation” value at CYP 3A4 was “N-demethylated to the Compound of Formula R via the P450 cytochrome oxidase isoform 3A4 (CYP 3A4)”. The “metabolic route: ketone reduction” value in the series on ketone reductase is reported as “undergo ketone reduction via the enzyme ketone reductase”. In addition, in series [2], the “rate of metabolism in vivo” value is given as “rapid”.

These data come from patent US12269825B2, “Organic compounds” (INTRA-CELLULAR THERAPIES, INC., priority 2014, dated 2025).
